System: M. tuberculosis H37Rv
Test: Microplate Alamar Blue assay
Assay type: cell-based
Settings: result in words

## C=CC(C)(C)n1cc(C[C@@H]2NC(=O)[C@H](CC(C)C)N(C)C2=O)c2ccccc21 [Compound 9, rufomyazine]
  anti-TB activity: did not show anti-TB activity

Reference: PMC7384767 (Journal of natural products, 2020)
